Test results: patent US11505533B2, “Metabolically stable N-acylaminooxadiazoles useful as antibacterial agents” (MICROBIOTIX, INC., priority 2017, dated 2022)

Legend:
Type in all cases: binding
Opiate μ(OP3, MOP) = Opiate μ(OP3, MOP) (Homo sapiens, UniProt P35372); conditions: for % Inhibition: 10 μM
Potassium Channel (KATP) = Potassium Channel (KATP) (Cricetus cricetus, UniProt Q09427); conditions: hamster; for % Inhibition: 10 μM
Histamine, H1 = Histamine, H1 (Homo sapiens, UniProt P35367); conditions: for % Inhibition: 10 μM
Muscarinic M3 = Muscarinic M3 (Homo sapiens, UniProt P20309); conditions: for % Inhibition: 10 μM
Adrenergic α2A = molecular target: T1, Adrenergic α2A (Homo sapiens, UniProt P08913); conditions: for % Inhibition: 10 μM
T1 sequence (P08913 1-465): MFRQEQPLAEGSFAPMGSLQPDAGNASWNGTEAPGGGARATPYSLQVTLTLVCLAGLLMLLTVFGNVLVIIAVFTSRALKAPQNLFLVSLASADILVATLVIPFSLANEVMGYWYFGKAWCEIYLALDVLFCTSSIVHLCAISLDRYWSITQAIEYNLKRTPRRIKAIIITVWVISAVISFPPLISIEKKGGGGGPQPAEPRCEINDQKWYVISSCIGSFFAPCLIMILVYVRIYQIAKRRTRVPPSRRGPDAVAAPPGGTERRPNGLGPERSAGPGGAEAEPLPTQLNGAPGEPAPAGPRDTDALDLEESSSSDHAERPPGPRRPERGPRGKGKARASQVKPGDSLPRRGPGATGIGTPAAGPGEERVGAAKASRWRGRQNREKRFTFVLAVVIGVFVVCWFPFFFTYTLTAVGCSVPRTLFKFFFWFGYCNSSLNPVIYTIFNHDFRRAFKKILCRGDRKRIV

Muscarinic M2 = molecular target: T2, Muscarinic M2 (Homo sapiens, UniProt P08172); conditions: for % Inhibition: 10 μM
T2 sequence (P08172 1-466): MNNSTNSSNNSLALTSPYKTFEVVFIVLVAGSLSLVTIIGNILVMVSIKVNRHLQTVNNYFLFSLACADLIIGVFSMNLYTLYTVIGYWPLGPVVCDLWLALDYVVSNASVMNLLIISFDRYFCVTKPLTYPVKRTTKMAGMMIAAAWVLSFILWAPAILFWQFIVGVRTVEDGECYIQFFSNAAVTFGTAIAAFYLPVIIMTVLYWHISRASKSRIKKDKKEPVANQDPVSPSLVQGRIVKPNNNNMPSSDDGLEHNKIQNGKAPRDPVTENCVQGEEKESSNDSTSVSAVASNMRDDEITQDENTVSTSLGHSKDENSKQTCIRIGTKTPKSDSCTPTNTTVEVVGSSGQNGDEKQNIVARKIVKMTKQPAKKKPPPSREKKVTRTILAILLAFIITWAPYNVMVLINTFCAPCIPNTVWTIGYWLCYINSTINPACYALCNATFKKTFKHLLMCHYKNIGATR

Nicotinic Acetylcholine = conditions: 10 μM; human
Adrenergic β2 = Adrenergic β2 (Homo sapiens, UniProt P07550); conditions: for % Inhibition: 10 μM
Sigma σ1 = Sigma σ1 (Homo sapiens, UniProt Q99720); conditions: for % Inhibition: 10 μM
Adenosine A1 = molecular target: T3, Adenosine A1 (Homo sapiens, UniProt P30542); conditions: for % Inhibition: 10 μM
T3 sequence (P30542 1-326): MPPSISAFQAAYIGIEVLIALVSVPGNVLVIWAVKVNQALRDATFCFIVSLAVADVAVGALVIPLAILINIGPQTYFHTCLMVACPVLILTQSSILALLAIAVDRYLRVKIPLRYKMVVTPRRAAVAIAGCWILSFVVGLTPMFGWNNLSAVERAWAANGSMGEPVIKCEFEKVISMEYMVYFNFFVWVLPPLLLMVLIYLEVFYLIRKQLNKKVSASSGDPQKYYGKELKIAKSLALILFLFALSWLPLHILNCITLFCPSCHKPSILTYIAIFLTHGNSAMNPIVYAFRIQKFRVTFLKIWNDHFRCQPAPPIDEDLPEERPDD

[1] = tested on: Glutamate, NMDA, Phencyclidine; conditions: 10 μM; rat
Adrenergic β1 = Adrenergic β1 (Homo sapiens, UniProt P08588); conditions: for % Inhibition: 10 μM
GABAA, Muscimol, Central = conditions: 10 μM; rat
Imidazoline I2, Central = conditions: 10 μM; rat
[2] = molecular target: Transporter, Norepinephrine (NET) (Homo sapiens, UniProt P23975); conditions: for % Inhibition: 10 μM
Prostanoid EP4 = Prostanoid EP4 (Homo sapiens, UniProt P35408); conditions: for % Inhibition: 10 μM
Adenosine A2A = Adenosine A2A (Homo sapiens, UniProt P29274); conditions: for % Inhibition: 10 μM
Dopamine D2s = Dopamine D2s (Homo sapiens, UniProt P14416); conditions: for % Inhibition: 10 μM
Adrenergic α1A = molecular target: T4, Adrenergic α1A (Rattus norvegicus, UniProt P43140); conditions: for % Inhibition: 10 μM
T4 sequence (P43140 1-466): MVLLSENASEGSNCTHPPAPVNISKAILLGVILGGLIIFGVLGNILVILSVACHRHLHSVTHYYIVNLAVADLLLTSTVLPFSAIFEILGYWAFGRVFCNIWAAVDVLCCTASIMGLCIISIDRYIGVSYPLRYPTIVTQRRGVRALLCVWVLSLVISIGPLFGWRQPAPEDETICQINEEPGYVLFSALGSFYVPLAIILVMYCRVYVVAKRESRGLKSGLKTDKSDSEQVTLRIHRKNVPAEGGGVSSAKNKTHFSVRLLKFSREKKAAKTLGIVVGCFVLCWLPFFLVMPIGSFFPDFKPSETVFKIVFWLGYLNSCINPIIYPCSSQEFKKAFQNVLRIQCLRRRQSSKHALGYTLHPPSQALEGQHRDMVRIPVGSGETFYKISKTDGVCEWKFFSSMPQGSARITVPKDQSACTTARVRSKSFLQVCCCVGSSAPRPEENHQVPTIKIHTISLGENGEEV

Sodium Channel, Site 2 = conditions: 10 μM; rat
Phorbol Ester = conditions: 10 μM; mouse
[3] = tested on: Calcium Channel L-type, Dihydropyridine; conditions: 10 μM; rat

Sequence of Prostanoid EP4 (P35408 whole entry): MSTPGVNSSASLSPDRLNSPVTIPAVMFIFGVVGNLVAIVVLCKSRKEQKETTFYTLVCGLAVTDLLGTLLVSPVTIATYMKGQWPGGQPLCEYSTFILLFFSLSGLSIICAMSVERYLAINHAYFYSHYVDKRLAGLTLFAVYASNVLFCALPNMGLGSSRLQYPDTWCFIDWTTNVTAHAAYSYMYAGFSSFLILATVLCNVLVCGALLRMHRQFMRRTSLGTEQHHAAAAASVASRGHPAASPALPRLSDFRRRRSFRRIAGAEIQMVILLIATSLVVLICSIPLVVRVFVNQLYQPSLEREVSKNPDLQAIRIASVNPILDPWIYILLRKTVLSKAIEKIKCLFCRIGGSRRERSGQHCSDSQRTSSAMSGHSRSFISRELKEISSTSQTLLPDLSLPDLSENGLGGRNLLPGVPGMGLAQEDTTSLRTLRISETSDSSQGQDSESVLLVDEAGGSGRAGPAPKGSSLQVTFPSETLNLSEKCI
Sequence of Muscarinic M3 (P20309 whole entry): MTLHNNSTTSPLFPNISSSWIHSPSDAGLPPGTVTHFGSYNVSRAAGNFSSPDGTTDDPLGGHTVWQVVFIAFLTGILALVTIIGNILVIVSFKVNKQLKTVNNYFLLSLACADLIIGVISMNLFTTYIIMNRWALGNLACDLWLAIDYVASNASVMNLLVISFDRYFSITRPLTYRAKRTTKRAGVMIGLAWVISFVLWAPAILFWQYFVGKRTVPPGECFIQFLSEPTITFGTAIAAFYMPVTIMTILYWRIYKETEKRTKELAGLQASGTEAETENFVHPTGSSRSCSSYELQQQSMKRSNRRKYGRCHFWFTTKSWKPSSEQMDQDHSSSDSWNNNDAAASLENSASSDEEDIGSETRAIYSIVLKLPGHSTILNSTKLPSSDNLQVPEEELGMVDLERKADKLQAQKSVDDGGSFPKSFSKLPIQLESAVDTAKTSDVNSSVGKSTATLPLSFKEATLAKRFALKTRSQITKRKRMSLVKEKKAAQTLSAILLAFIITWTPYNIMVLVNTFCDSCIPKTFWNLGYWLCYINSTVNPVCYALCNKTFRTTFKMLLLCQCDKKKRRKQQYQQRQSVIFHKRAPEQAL
Sequence of Dopamine D2s (P14416 1-414 isoform P14416-2): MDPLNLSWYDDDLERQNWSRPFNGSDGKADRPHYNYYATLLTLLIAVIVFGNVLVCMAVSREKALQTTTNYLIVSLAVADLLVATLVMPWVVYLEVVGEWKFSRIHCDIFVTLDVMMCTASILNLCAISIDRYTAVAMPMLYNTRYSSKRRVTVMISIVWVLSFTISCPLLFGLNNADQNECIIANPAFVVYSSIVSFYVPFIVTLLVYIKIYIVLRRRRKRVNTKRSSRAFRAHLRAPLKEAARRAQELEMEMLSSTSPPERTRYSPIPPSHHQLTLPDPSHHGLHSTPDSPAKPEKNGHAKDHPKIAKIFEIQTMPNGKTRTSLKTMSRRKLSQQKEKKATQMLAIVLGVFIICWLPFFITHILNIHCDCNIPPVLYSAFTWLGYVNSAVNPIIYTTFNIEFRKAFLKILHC
Sequence of Adrenergic β2 (P07550 whole entry): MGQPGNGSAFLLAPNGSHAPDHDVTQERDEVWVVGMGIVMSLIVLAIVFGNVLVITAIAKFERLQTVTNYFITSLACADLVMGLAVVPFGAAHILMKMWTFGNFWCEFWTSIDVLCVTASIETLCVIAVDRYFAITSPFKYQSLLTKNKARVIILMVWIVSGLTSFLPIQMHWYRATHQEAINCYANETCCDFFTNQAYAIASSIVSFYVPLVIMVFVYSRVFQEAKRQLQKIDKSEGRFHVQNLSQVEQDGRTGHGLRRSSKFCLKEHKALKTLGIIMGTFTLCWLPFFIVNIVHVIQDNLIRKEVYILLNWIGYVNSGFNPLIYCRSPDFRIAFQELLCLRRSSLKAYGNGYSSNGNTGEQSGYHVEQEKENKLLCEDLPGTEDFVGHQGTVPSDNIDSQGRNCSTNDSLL
Sequence of Transporter, Norepinephrine (NET) (P23975 whole entry): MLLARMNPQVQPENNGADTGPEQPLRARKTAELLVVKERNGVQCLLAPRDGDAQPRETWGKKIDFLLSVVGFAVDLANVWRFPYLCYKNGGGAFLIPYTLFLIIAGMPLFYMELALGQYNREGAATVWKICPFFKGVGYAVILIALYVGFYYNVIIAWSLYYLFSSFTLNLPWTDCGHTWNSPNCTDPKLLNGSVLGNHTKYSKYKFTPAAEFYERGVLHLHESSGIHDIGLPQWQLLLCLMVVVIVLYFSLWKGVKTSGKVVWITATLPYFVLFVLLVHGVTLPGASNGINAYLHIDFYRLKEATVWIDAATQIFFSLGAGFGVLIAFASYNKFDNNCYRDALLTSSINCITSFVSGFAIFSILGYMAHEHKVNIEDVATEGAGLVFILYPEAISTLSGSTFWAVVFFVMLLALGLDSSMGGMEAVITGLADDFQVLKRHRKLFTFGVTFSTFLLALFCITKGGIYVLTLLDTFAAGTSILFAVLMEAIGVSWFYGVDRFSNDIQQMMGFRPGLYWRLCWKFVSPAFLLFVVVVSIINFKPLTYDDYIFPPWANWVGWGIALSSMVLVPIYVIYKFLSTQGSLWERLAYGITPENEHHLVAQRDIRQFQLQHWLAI
Sequence of Sigma σ1 (Q99720 whole entry): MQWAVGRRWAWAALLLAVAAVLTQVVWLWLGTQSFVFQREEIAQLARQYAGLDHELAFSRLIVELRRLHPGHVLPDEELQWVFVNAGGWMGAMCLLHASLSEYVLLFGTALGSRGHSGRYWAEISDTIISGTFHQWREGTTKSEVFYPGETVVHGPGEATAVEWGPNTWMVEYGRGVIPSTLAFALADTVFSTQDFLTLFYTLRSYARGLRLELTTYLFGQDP
Sequence of Opiate μ(OP3, MOP) (P35372 whole entry): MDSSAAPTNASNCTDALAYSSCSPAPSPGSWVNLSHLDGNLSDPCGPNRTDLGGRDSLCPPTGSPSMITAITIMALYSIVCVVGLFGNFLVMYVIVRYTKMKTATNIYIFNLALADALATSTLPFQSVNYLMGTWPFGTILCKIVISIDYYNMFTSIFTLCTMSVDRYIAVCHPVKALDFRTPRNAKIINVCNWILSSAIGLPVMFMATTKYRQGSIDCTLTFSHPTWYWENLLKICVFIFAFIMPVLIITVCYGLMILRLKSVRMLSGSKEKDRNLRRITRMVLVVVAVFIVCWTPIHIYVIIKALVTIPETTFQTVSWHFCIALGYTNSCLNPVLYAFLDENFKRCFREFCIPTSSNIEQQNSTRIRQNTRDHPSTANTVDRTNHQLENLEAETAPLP
Sequence of Histamine, H1 (P35367 whole entry): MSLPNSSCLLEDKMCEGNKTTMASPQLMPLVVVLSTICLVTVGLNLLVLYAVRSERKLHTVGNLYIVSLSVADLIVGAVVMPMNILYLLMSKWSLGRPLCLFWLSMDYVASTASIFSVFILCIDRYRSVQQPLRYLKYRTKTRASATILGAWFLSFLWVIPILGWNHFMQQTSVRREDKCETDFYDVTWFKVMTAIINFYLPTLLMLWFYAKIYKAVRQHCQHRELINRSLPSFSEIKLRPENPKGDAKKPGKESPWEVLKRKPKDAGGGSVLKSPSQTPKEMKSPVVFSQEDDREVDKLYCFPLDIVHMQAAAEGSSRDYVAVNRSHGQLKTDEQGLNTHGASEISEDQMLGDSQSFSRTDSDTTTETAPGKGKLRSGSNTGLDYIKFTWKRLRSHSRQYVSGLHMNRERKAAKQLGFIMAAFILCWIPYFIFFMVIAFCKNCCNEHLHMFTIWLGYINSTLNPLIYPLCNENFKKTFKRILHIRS
Sequence of Adenosine A2A (P29274 whole entry): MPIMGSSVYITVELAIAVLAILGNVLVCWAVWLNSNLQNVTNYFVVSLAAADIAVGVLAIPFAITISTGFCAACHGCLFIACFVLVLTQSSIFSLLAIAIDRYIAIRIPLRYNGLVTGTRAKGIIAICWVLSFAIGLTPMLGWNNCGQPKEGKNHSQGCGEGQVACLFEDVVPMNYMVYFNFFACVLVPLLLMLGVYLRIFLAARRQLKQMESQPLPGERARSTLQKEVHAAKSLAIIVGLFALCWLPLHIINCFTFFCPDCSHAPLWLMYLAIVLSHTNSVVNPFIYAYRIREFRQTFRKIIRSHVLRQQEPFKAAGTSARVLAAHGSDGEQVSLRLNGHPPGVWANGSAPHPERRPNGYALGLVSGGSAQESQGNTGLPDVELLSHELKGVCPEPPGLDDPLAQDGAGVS
Sequence of Adrenergic β1 (P08588 whole entry): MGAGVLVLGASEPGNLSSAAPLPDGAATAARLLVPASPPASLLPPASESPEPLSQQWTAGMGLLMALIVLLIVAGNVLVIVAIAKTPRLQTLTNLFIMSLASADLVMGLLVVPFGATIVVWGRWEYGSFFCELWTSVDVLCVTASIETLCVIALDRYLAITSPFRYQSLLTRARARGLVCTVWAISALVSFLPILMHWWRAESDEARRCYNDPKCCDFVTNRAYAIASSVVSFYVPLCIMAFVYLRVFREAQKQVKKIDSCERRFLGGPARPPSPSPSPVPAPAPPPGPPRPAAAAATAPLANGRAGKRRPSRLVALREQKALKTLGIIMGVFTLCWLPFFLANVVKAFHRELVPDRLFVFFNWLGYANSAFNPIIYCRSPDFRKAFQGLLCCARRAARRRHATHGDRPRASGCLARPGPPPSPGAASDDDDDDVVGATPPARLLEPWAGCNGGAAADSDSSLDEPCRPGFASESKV

| Structure (SMILES) | % Inhibition (Opiate μ(OP3, MOP)) [%] | % Inhibition (Potassium Channel (KATP)) [%] | % Inhibition (Histamine, H1) [%] | % Inhibition (Muscarinic M3) [%] | % Inhibition (Adrenergic α2A) [%] | % Inhibition (Muscarinic M2) [%] | % Inhibition (Nicotinic Acetylcholine) [%] | % Inhibition (Adrenergic β2) [%] | % Inhibition (Sigma σ1) [%] | % Inhibition (Adenosine A1) [%] | % Inhibition [1] [%] | % Inhibition (Adrenergic β1) [%] | % Inhibition (GABAA, Muscimol, Central) [%] | % Inhibition (Imidazoline I2, Central) [%] | % Inhibition [2] [%] | % Inhibition (Prostanoid EP4) [%] | % Inhibition (Adenosine A2A) [%] | % Inhibition (Sodium Channel, Site 2) [%] | % Inhibition (Phorbol Ester) [%] | % Inhibition [3] [%] | also measured |
| --- | --- | --- | --- | --- | --- | --- | --- | --- | --- | --- | --- | --- | --- | --- | --- | --- | --- | --- | --- | --- | --- |
| O=C(Nc1nnc(-c2ccc(F)cc2)o1)N1CCc2ccccc2C1 [MBX-4132] | 74 | 10 | 17 | 16 | 54 | 13 | −8 | 36 | −4 | 48 | −3 | −10 | 1 | 33 | 50 | 18 | 43 | 4 | 4 | 15 | % Inhibition (Dopamine D2s): 25%; % Inhibition (Adrenergic α1A): 24% |
| O=C(Nc1nnc(-c2ccc(F)cc2)o1)c1ccc(Oc2ccccc2)nc1 [MBX-4237] |  |  |  |  |  |  | 8 |  |  |  | 9 |  | −6 | 14 |  |  |  | −3 | 2 | 2 | inhibition at 10 µM (Opiate μ(OP3, MOP)): 12%; inhibition at 10 µM (Potassium Channel (KATP)): 9%; inhibition at 10 µM (Histamine, H1): 6%; inhibition at 10 µM (Muscarinic M3): 11%; inhibition at 10 µM (Adrenergic α2A): -8%; inhibition at 10 µM (Muscarinic M2): 17%; inhibition at 10 µM (Adrenergic β2): 15%; inhibition at 10 µM (Sigma σ1): 32%; inhibition at 10 µM (Adenosine A1): 10%; inhibition at 10 µM (Adrenergic β1): -9%; inhibition at 10 µM [2]: 45%; inhibition at 10 µM (Prostanoid EP4): -22%; inhibition at 10 µM (Adenosine A2A): 6%; inhibition at 10 µM (Dopamine D2s): -3%; inhibition at 10 µM (Adrenergic α1A): 6% |
| O=C(Nc1nnc(-c2ccc(F)cc2)o1)c1ccc(OC2CCCCC2)cc1 [MBX-4292] | 4 | 8 | −8 | 0 | 3 | 0 | 1 | 6 | 10 | 8 | 0 | 3 | −4 | 10 | 77 | 28 | 11 | −2 | 2 | 23 | % Inhibition (Dopamine D2s): 1%; % Inhibition (Adrenergic α1A): 9% |
| O=C(Nc1nnc(-c2ccc(F)cc2)o1)N1CC=C(C(F)(F)F)CC1 [MBX-4347] | −14 | 2 | 22 | 2 | 9 | 2 | −4 | 8 | −2 | −4 | 5 | 3 | 4 | −5 | 32 | −4 | 3 | −5 | 7 | 16 | % Inhibition (Dopamine D2s): −2%; % Inhibition (Adrenergic α1A): −21% |
